Source: patent US5143906A, “Kedarcidin antitumor chromophore and pharmaceutical composition containing same” (Bristol-Myers Squibb Company, priority 1991, dated 1992)
Values after ≈ are worked out from the molar mass of the structure shown.

Experiments:
[1] = tested on: human ovarian carcinoma A2780 drug sensitive cell line; test: In vitro cytotoxicity assay (XTT), A2780; format: cell-based
Procedure: The A2780/DDP cell line is reported to be resistant through enhanced DNA repair mechanisms and elevated GSH/GST levels. Cells were cultured in McCoy's media and 10% fetal bovine serum. When in log phase growth, 4×10^3 cells/well were plated into 96 well microtiter plates and incubated at 37° C. in […] /5% CO2 for 24 hours to allow cell attachment. Compounds were added to the top row of wells, serially diluted (4 fold dilutions) and incubated for an additional 72 hours. The number of viable cells in each well was then quantitated as previously described^2 by adding 0.05 mg/ml final concentration tetrazolium stain (XTT) in the presence of 0.005 mM final concentration phenazine methosulfate. After incubation at room temperature for 3 hours to allow color development, optical density values were measured using a Dynatech MR600 plate reader at […]. IC50 values (drug concentration inhibiting cell growth by 50%) were calculated using linear regression analysis of the optical density readings. Triplicate determinations on separate 96 well plates were done for each drug on each cell line tested.

[2] = tested on: ip implanted P388 leukemia; test: Antitumor activity against ip implanted P388 leukemia; format: in vivo, murine (CDF1 mice)
Excerpt: The P388 tumor was maintained in ascitic form in DBA/2 mice. Experimental tumor models used CDF^1 mice implanted via the intraperitoneal or intravenous route with 1×10^6 leukemia cells on day 0 and dosed with drugs according to the indicated route and schedule. Mice were weighed on day 0 and on day 5 or 6. Weight loss of 20% or greater was an indicator of drug toxicity. Each dose group consisted of 6 mice with 10 mice in the untreated control group. The dosing schedule was Q1DX1;1. Death checks were performed daily and the median life span of each group determined. […] Experiments were terminated on or about day 30.

## COc1c(OC(C)C)cc2cc(O)c(C(=O)N[C@@H]3CC(=O)OC[C@@H](O[C@H]4C[C@H](O)[C@H](N(C)C)[C@H](C)O4)/C4=C/C#C[C@@H]5O[C@]56C(=C[C@H](Oc5ccc3nc5Cl)[C@@H]6O[C@H]3C[C@@](C)(O)[C@@H](O)[C@H](C)O3)C#C4)cc2c1OC [Kedarcidin chromophore]
[1]; A2780, 72 h, VP-16 values: mean of triplicate determinations from last 6 experiments
  IC50: 0.2 ng/mL (≈ 0.194 nM)
[1]; VP-16 sensitive cell line (A2780)
  fold more potent than VP-16: 285 fold
[2]; Exp. 8305, 0.125 mg/kg/dose
  % T/C: 145%
  Av. wgt. change: 0.1 g
  Med. surv. time: 14.5
  No. of mice alive on d 5: 6/6
[2]; Exp. 8305, 0.25 mg/kg/dose
  % T/C: 150%
  Av. wgt. change: -0.4 g
  Med. surv. time: 15.0
  No. of mice alive on d 5: 6/6
[2]; Exp. 8305, 0.5 mg/kg/dose
  % T/C: 165%
  Av. wgt. change: -0.5 g
  Med. surv. time: 16.5
  No. of mice alive on d 5: 6/6
[2]; Exp. 8305, 1 mg/kg/dose
  % T/C: 175%
  Av. wgt. change: -0.3 g
  Med. surv. time: 17.5
  No. of mice alive on d 5: 6/6
[2]; Exp. 8305, 2 mg/kg/dose
  % T/C: 105%
  Av. wgt. change: -2.2 g
  Med. surv. time: 10.5
  No. of mice alive on d 5: 6/6
[2]; Exp. 8305, 4 mg/kg/dose
  % T/C: 90%
  Av. wgt. change: -3.6 g
  Med. surv. time: 9.0
  No. of mice alive on d 5: 6/6
[2]; Exp. 8305, ip one day after tumor implant
  optimal dose: 1 mg/kg/inj
[2]; Exp. 8328, 0.25 mg/kg/dose
  % T/C: 185%
  Av. wgt. change: -0.4 g
  Med. surv. time: 18.5
  No. of mice alive on d 5: 6/6
[2]; Exp. 8328, 0.5 mg/kg/dose
  % T/C: 130%
  Av. wgt. change: -1.1 g
  Med. surv. time: 13.0
  No. of mice alive on d 5: 6/6
[2]; Exp. 8328, 1.0 mg/kg/dose
  % T/C: 90%
  Av. wgt. change: -2.3 g
  Med. surv. time: 9.0
  No. of mice alive on d 5: 6/6
[2]; Exp. 8328, 2.0 mg/kg/dose
  % T/C: TOX
  Av. wgt. change: -1.9 g
  Med. surv. time: TOX
  No. of mice alive on d 5: 2/6
[2]; Exp. 8328, ip, Q1DX1;1
  optimal dose: 0.25 mg/kg/inj
